Source: US8394848B2, “Compounds that modulate intracellular calcium” (Calcimedica, Inc., priority 2008, dated 2013)

system: JR251 or RBL cells; experiment: Store-operated calcium entry, either JR251 or RBL cells, or both; format: cell-based
Method in brief: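 Orai1/STIM1 stable cells: fluo-4-AM loaded, compound 30 min at RT in Ca2+-free HBSS, then CaCl2 added; IC50 from Peak-Basal FLIPR fluorescence. RBL-2H3 cells: compound 5 min, then thapsigargin (5.5× stock, 5.5 uM) 25 min, then calcium added; IC50 from Upslope (signal 7 s after calcium minus baseline).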

IC50, < 10 µM:
Cc1ccc(-c2csc(NC(=O)c3nc4cccc(Br)c4o3)c2C(=O)O)c(F)c1F [2-(7-bromobenzo[d]oxazole-2-carboxamido)-4-(2,3-difluoro-4-methylphenyl)thiophene-3-carboxylic acid]
N#Cc1cccc2cc(-c3csc(NC(=O)c4cc5ccccc5o4)c3C(=O)O)oc12 [2-(benzofuran-2-carboxamido)-4-(7-cyanobenzofuran-2-yl)thiophene-3-carboxylic acid]
Cc1ccc(-c2csc(NC(=O)c3nc4ccccc4o3)c2C(=O)O)c(F)c1F [2-(benzo[d]oxazole-2-carboxamido)-4-(2,3-difluoro-4-methylphenyl)thiophene-3-carboxylic acid]
O=C(Nc1scc(-c2cccc(Cl)c2)c1C(=O)O)c1ccsc1 [4-(3-chlorophenyl)-2-(thiophene-3-carboxamido)thiophene-3-carboxylic acid]
O=C(Nc1scc(-c2ccc(Cl)cc2F)c1C(=O)O)c1nc2ccccc2o1 [2-(benzo[d]oxazole-2-carboxamido)-4-(4-chloro-2-fluorophenyl)thiophene-3-carboxylic acid]
N#Cc1cc(-c2csc(NC(=O)c3nc4ccccc4o3)c2C(=O)O)ccc1F [2-(benzo[d]oxazole-2-carboxamido)-4-(3-cyano-4-fluorophenyl)thiophene-3-carboxylic acid]
O=Cc1sccc1OCC(=O)Nc1scc(-c2ccc(Cl)cc2)c1C(=O)O [4-(4-chlorophenyl)-2-(2-(2-formylthiophen-3-yloxy)acetamido)thiophene-3-carboxylic acid]
O=C(Nc1scc(-c2ccc(Br)cc2)c1C(=O)O)c1cc2c(F)cccn2n1 [4-(4-bromophenyl)-2-(4-fluoropyrazolo[1,5-a]pyridine-2-carboxamido)thiophene-3-carboxylic acid]
O=C(Nc1scc(-c2ccc3c(c2)CCC3)c1C(=O)O)c1cc2ccccc2o1 [2-(benzofuran-2-carboxamido)-4-(2,3-dihydro-1H-inden-5-yl)thiophene-3-carboxylic acid]
O=C(O)c1c(-c2ccc(Cl)cc2)csc1NC(=O)C1(c2ccc(Cl)cc2)CC1 [4-(4-chlorophenyl)-2-(1-(4-chlorophenyl)cyclopropanecarboxamido)thiophene-3-carboxylic acid]
O=C(Nc1scc(-c2ccc(Cl)cc2)c1C(=O)O)c1nc2ccc(F)cc2o1 [4-(4-chlorophenyl)-2-(6-fluorobenzo[d]oxazole-2-carboxamido)thiophene-3-carboxylic acid]
Cc1nnsc1C(=O)Nc1scc(-c2ccc(Br)cc2)c1C(=O)O [4-(4-bromophenyl)-2-(4-methyl-1,2,3-thiadiazole-5-carboxamido)thiophene-3-carboxylic acid]
O=C(CCc1ccco1)Nc1scc(-c2ccc(Cl)cc2)c1C(=O)O [4-(4-chlorophenyl)-2-(3-(furan-2-yl)propanamido)thiophene-3-carboxylic acid]
O=C(Nc1scc(-c2ccc(Cl)cc2)c1C(=O)O)c1cc2ccccc2nn1 [4-(4-chlorophenyl)-2-(cinnoline-3-carboxamido)thiophene-3-carboxylic acid]
O=C(Nc1scc(-c2ccc(Cl)cc2)c1C(=O)O)c1cc2c(Cl)cccn2n1 [4-(4-chlorophenyl)-2-(4-chloropyrazolo[1,5-a]pyridine-2-carboxamido)thiophene-3-carboxylic acid]
O=C(O)c1c(-c2ccc(Cl)cc2)csc1NC(=O)C(F)Cc1c(Cl)cccc1Cl (stereo not shown) [4-(4-chlorophenyl)-2-(3-(2,6-dichlorophenyl)-2-fluoropropanamido)thiophene-3-carboxylic acid]
Cc1ccc(-c2csc(NC(=O)c3nc4ccccc4o3)c2C(=O)O)cc1CO [2-(benzo[d]oxazole-2-carboxamido)-4-(3-(hydroxymethyl)-4-methylphenyl)thiophene-3-carboxylic acid]
Cn1ncc(C(=O)Nc2scc(-c3ccc(Br)cc3)c2C(=O)O)c1Cl [4-(4-bromophenyl)-2-(5-chloro-1-methyl-1H-pyrazole-4-carboxamido)thiophene-3-carboxylic acid]
O=C(Nc1scc(-c2ccc(Cl)cc2F)c1C(=O)O)c1nc2cccc(F)c2s1 [4-(4-chloro-2-fluorophenyl)-2-(7-fluorobenzo[d]thiazole-2-carboxamido)thiophene-3-carboxylic acid]
O=C(Nc1scc(-c2cc(F)c(Cl)c(F)c2)c1C(=O)O)c1nc2ccccc2s1 [2-(benzo[d]thiazole-2-carboxamido)-4-(4-chloro-3,5-difluorophenyl)thiophene-3-carboxylic acid]
O=C(CCc1cccc(F)c1)Nc1scc(-c2ccc(Br)cc2)c1C(=O)O [4-(4-bromophenyl)-2-(3-(3-fluorophenyl)propanamido)thiophene-3-carboxylic acid]
O=C(Nc1scc(-c2ccc(Cl)cc2)c1C(=O)O)c1cc2c(F)cccn2n1 [4-(4-chlorophenyl)-2-(4-fluoropyrazolo[1,5-a]pyridine-2-carboxamido)thiophene-3-carboxylic acid]
N#Cc1cccc2nc(C(=O)Nc3scc(-c4ccc(Cl)cc4)c3C(=O)O)oc12 [4-(4-chlorophenyl)-2-(7-cyanobenzo[d]oxazole-2-carboxamido)thiophene-3-carboxylic acid]
O=C(Nc1scc(-c2ccc(Cl)cc2)c1C(=O)O)c1nc2c(F)cc(F)cc2o1 [4-(4-chlorophenyl)-2-(4,6-difluorobenzo[d]oxazole-2-carboxamido)thiophene-3-carboxylic acid]
Cc1ccc(-c2csc(NC(=O)c3nc4c(F)cccc4s3)c2C(=O)O)c(F)c1F [4-(2,3-difluoro-4-methylphenyl)-2-(4-fluorobenzo[d]thiazole-2-carboxamido)thiophene-3-carboxylic acid]
O=C(Nc1scc(-c2cc3cc(Br)ccc3o2)c1C(=O)O)c1cc2ccccc2o1 [2-(benzofuran-2-carboxamido)-4-(5-bromobenzofuran-2-yl)thiophene-3-carboxylic acid]
O=C(Nc1scc(-c2ccc(Br)c(F)c2F)c1C(=O)O)c1ccc2occc2c1 [2-(benzofuran-5-carboxamido)-4-(4-bromo-2,3-difluorophenyl)thiophene-3-carboxylic acid]
Cc1cc(-c2csc(NC(=O)c3cc4ccccc4o3)c2C(=O)O)c(F)cc1Cl [2-(benzofuran-2-carboxamido)-4-(4-chloro-2-fluoro-5-methylphenyl)thiophene-3-carboxylic acid]
O=C(Nc1scc(-c2ccc(Cl)c(Cl)c2)c1C(=O)O)c1ccc2snnc2c1 [2-(benzo[d][1,2,3]thiadiazole-5-carboxamido)-4-(3,4-dichlorophenyl)thiophene-3-carboxylic acid]
O=C(CCc1cccs1)Nc1scc(-c2ccc(Br)cc2)c1C(=O)O [4-(4-bromophenyl)-2-(3-(thiophen-2-yl)propanamido)thiophene-3-carboxylic acid]
O=C(Nc1scc(-c2ccc(Br)cc2)c1C(=O)O)c1ccncc1 [4-(4-bromophenyl)-2-(isonicotinamido)thiophene-3-carboxylic acid]
